Assay [1] deals with Beta-2 adrenergic receptor (Cavia porcellus) (UniProt Q8K4Z4). Nature of the assay: Agonist activity at beta 2 adrenergic receptor in guinea pig trachea assessed as tracheal relaxation at 10^-9 to 10^-4 M.
For assay [2], the target named is Beta-2 adrenergic receptor (Rattus norvegicus) (UniProt P10608). Nature of the assay: Agonist activity at beta 2 adrenergic receptor in Sprague-Dawley rat adipocytes assessed as lipolysis at 10^-9 to 10^-4 M after 1 hr. It counts as cell-based.
Assay [3] concerns the target Beta-2 adrenergic receptor (Cavia porcellus) (UniProt Q8K4Z4). Nature of the assay: Antagonist activity at beta 2 adrenergic receptor in guinea pig trachea assessed as inhibition of trimetoquinol-induced tracheal relaxation at 10^-4 M preincubated for 30 mins followed by trimetoquinol addition measured within 1 hr.
Assay [4] has as its target Beta-1 adrenergic receptor (Cavia porcellus) (UniProt B0FL73). Nature of the assay: Partial agonist activity at beta 1 adrenergic receptor in guinea pig right atria assessed as chronotropic response measured over 3 mins.
Assay [5] shares this target. Nature of the assay: Antagonist activity at beta 1 adrenergic receptor in guinea pig right atria assessed as inhibition of trimetoquinol-induced chronotropic response at 10^-4 M preincubated for 30 mins followed by trimetoquinol addition measured within 45 mins relative to control.
For assay [6] the target is unchanged. Nature of the assay: Antagonist activity at beta 1 adrenergic receptor in guinea pig right atria assessed as inhibition of 10^-3 M trimetoquinol-induced chronotropic response at 10^-4 M preincubated for 30 mins followed by trimetoquinol addition measured within 1 hr.
For assay [7] the target is unchanged. Nature of the assay: Antagonist activity at beta 1 adrenergic receptor in guinea pig right atria assessed as inhibition of 10^-3 M isoproterenol-induced chronotropic response at 10^-4 M.
For assay [8] the target is unchanged. Nature of the assay: Competitive antagonist activity at beta 1 adrenergic receptor in guinea pig right atria assessed as inhibition of trimetoquinol-induced chronotropic response at 10^-6 to 10^-5 M preincubated for 30 mins followed by trimetoquinol addition measured within 1 hr.
Assay [9] concerns the target Beta-2 adrenergic receptor (Cavia porcellus) (UniProt Q8K4Z4). Conditions: Trachea.

SMILES strings stand for the structures. The source made the active and inactive calls. The calls are words filed in the database; no cut-off is given here.

Sequence of Beta-2 adrenergic receptor (Cavia porcellus) (Q8K4Z4 whole entry, looked up): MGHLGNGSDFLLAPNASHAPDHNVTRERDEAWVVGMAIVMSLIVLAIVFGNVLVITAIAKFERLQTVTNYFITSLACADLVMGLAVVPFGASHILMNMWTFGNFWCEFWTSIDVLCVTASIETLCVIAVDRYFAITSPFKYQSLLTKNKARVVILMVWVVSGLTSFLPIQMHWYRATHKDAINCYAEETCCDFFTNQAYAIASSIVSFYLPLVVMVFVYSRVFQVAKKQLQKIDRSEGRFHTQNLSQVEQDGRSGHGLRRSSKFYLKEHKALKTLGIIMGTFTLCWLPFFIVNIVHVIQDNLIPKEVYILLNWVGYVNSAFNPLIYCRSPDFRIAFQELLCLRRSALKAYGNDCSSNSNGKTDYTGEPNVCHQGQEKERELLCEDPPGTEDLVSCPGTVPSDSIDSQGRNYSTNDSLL
Sequence of Beta-1 adrenergic receptor (Cavia porcellus) (B0FL73 1-467): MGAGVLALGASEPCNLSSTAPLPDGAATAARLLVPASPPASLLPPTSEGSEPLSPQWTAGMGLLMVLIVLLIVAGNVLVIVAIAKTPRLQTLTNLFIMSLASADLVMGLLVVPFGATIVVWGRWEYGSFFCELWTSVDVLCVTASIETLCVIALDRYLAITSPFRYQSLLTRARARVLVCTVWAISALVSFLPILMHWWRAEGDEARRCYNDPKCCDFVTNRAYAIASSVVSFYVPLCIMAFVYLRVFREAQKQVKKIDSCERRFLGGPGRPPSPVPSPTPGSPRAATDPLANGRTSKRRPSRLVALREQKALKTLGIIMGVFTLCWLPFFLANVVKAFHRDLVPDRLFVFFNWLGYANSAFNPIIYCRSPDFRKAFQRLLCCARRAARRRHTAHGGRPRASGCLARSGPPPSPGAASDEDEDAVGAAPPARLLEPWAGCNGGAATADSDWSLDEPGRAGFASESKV
Sequence of Beta-2 adrenergic receptor (Rattus norvegicus) (P10608 whole entry, looked up): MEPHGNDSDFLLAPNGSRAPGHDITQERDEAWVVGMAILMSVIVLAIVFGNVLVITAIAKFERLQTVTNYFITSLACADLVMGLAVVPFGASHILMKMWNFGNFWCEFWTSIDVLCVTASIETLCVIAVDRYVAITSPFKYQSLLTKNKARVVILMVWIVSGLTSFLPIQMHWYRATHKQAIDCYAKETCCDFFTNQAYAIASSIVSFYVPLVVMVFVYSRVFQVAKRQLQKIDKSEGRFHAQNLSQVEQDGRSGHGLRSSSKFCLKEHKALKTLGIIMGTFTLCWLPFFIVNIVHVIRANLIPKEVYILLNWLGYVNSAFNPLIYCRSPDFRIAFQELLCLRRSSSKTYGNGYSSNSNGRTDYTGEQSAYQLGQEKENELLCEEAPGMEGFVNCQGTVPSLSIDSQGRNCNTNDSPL

Broadly, the inhibition is the percentage by which the read-out fell short of the control. `COc1cc(CC2(C)NCCc3cc(O)c(O)cc32)cc(OC)c1OC` (configuration not stated): the result in assay [1] and in assay [2] was inactive. Also, the inhibition result in [3] is “inactive”. The outcome in [4] was Active.
In the case of `COc1cc(CC2(Cc3ccccc3)NCCc3cc(O)c(O)cc32)cc(OC)c1OC` (configuration not stated), the result in assay [1] and in assay [2] was inactive. For the same molecule, the inhibition entry in assay [3] is “inactive”. The inhibition in assay [5] was under 10%. For the same molecule, the inhibition entry in assay [6], in assay [7] and in assay [8] was “Active” throughout.
`COc1cc(C[C@@H]2NCCc3cc(O)c(O)cc32)cc(OC)c1OC` came in with a pD2 in assay [9] of 7.
